Laboratory results as given in ChEMBL document CHEMBL1123353, “3,17 beta-Dihydroxy-20,21-epoxy-19-norpregna-1,3,5(10)-trienes: synthesis, rearrangement, cytotoxicity, and estrogen-receptor binding” (J Med Chem, 1986).

Legend:
GH3 = assay: Compound was evaluated for toxicity against GH3 cells; format: functional, cell-based; settings: Rattus norvegicus
HeLa = assay: Compound was evaluated for toxicity against HeLa S3 cells; format: functional, cell-based; settings: Homo sapiens

## C=C[C@@]12COC(=O)C(=C)[C@@H]1[C@H]1OC(=O)C(=C)[C@@H]1[C@@H](O)C2 [VERNOLEPIN]
GH3
  IC50: 5.2 µM
HeLa
  IC50: 3.5 µM

## C[C@]12CC[C@@H]3c4ccc(OC(=O)N(CCCl)CCCl)cc4CC[C@H]3[C@@H]1CC[C@@H]2O [ESTRAMUSTINE]
HeLa
  IC50: 3.4 µM

## C[C@]12CC[C@@H]3c4ccc(O)cc4CC[C@H]3[C@@H]1CC[C@@]2(O)[C@H]1CO1
GH3
  IC50: 5.5 µM
HeLa
  IC50: 6.5 µM

## C[C@]12CC[C@@H]3c4ccc(O)cc4CC[C@H]3[C@@H]1CC[C@@]2(O)[C@@H]1CO1
GH3
  IC50: 17.7 µM
HeLa
  IC50: 18.6 µM
